Experimental data reported in PubChem BioAssay (NCI).
Where “and” joins values, the source holds several entries; their conditions need not be identical. Equal entries are not always repeated.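 Interpolation was linear, between the two tested concentrations surrounding the appropriate level; five concentrations were tested over 48 hours in 96-well plates. GI50: concentration for 50% inhibition of growth. The concentration for full growth arrest is given as TGI.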

Key:
Test in all cases: NCI anticancer screen, dose series, 48 h
786-0 renal = tested on: 786-0 renal
A498 renal = tested on: A498 renal
A549 NSCLC = tested on: A549 NSCLC
ACHN renal = tested on: ACHN renal
BT-549 breast = tested on: BT-549 breast
CAKI-1 renal = tested on: CAKI-1 renal
COLO 205 colon = tested on: COLO 205 colon
DU-145 prostate = tested on: DU-145 prostate
EKVX NSCLC = tested on: EKVX NSCLC
HCT-116 colon = tested on: HCT-116 colon
HCT-15 colon = tested on: HCT-15 colon
HL-60(TB) leukemia = tested on: HL-60(TB) leukemia
HOP-62 NSCLC = tested on: HOP-62 NSCLC
HOP-92 NSCLC = tested on: HOP-92 NSCLC
HS 578T breast = tested on: HS 578T breast
HT29 colon = tested on: HT29 colon
IGROV1 ovarian = tested on: IGROV1 ovarian
K-562 leukemia = tested on: K-562 leukemia
KM12 colon = tested on: KM12 colon
LOX IMVI melanoma = tested on: LOX IMVI melanoma
M14 melanoma = tested on: M14 melanoma
MALME-3M melanoma = tested on: MALME-3M melanoma
MCF7 breast = tested on: MCF7 breast
MDA-MB-231 breast = tested on: MDA-MB-231 breast
MDA-MB-435 = tested on: MDA-MB-435
MDA-N = tested on: MDA-N
MOLT-4 leukemia = tested on: MOLT-4 leukemia
NCI-H226 lung = tested on: NCI-H226 lung
NCI-H23 lung = tested on: NCI-H23 lung
NCI-H522 lung = tested on: NCI-H522 lung
NCI/ADR-RES ovarian = tested on: NCI/ADR-RES ovarian
OVCAR-3 ovarian = tested on: OVCAR-3 ovarian
OVCAR-4 ovarian = tested on: OVCAR-4 ovarian
OVCAR-5 ovarian = tested on: OVCAR-5 ovarian
OVCAR-8 ovarian = tested on: OVCAR-8 ovarian
PC-3 prostate = tested on: PC-3 prostate
RPMI-8226 leukemia = tested on: RPMI-8226 leukemia
RXF 393 renal = tested on: RXF 393 renal
SF-268 CNS = tested on: SF-268 CNS
SF-295 CNS = tested on: SF-295 CNS
SF-539 CNS = tested on: SF-539 CNS
SK-MEL-2 melanoma = tested on: SK-MEL-2 melanoma
SK-MEL-28 melanoma = tested on: SK-MEL-28 melanoma
SK-MEL-5 melanoma = tested on: SK-MEL-5 melanoma
SK-OV-3 ovarian = tested on: SK-OV-3 ovarian
SN12C renal = tested on: SN12C renal
SNB-19 CNS = tested on: SNB-19 CNS
SR leukemia = tested on: SR leukemia
SW-620 colon = tested on: SW-620 colon
T-47D breast = tested on: T-47D breast
TK-10 renal = tested on: TK-10 renal
U251 CNS = tested on: U251 CNS
UACC-257 melanoma = tested on: UACC-257 melanoma
UACC-62 melanoma = tested on: UACC-62 melanoma
UO-31 renal = tested on: UO-31 renal
CCRF-CEM leukemia = tested on: CCRF-CEM leukemia
LXFL 529 NSCLC = tested on: LXFL 529 NSCLC
SNB-75 CNS = tested on: SNB-75 CNS

`CCOC(=O)C12C(=O)CCN1CCc1ccccc1C2C` (stereo not drawn) gave a TGI (786-0 renal) greater than 100 µM, a TGI (A498 renal) greater than 100 µM and a TGI (A549 NSCLC) greater than 100 µM. It also gave a TGI (ACHN renal) greater than 100 µM, a TGI (BT-549 breast) greater than 100 µM and a TGI (CAKI-1 renal) greater than 100 µM. The TGI (COLO 205 colon) was greater than 100 µM, the TGI (DU-145 prostate) was greater than 100 µM and the TGI (EKVX NSCLC) was greater than 100 µM. The TGI (HCT-116 colon) was greater than 100 µM, the TGI (HCT-15 colon) was greater than 100 µM and the TGI (HL-60(TB) leukemia) was greater than 100 µM. It also gave a TGI (HOP-62 NSCLC) greater than 100 µM, a TGI (HOP-92 NSCLC) greater than 100 µM and a TGI (HS 578T breast) greater than 100 µM. For the same molecule, the TGI (HT29 colon) was greater than 100 µM, the TGI (IGROV1 ovarian) was greater than 100 µM and the TGI (K-562 leukemia) was greater than 100 µM. The TGI (KM12 colon) was greater than 100 µM, the TGI (LOX IMVI melanoma) was greater than 100 µM and the TGI (M14 melanoma) was greater than 100 µM. For the same molecule, the TGI (MALME-3M melanoma) was greater than 100 µM, the TGI (MCF7 breast) was greater than 100 µM and the TGI (MDA-MB-231 breast) was greater than 100 µM. For the same molecule, the TGI (MDA-MB-435) was greater than 100 µM, the TGI (MDA-N) was greater than 100 µM and the TGI (MOLT-4 leukemia) was greater than 100 µM. It also gave a TGI (NCI-H226 lung) greater than 100 µM, a TGI (NCI-H23 lung) greater than 100 µM and a TGI (NCI-H522 lung) greater than 100 µM. For the same molecule, the TGI (NCI/ADR-RES ovarian) was greater than 100 µM, the TGI (OVCAR-3 ovarian) was greater than 100 µM and the TGI (OVCAR-4 ovarian) was greater than 100 µM. For the same molecule, the TGI (OVCAR-5 ovarian) was greater than 100 µM, the TGI (OVCAR-8 ovarian) was greater than 100 µM and the TGI (PC-3 prostate) was greater than 100 µM. The TGI (RPMI-8226 leukemia) was greater than 100 µM, the TGI (RXF 393 renal) was greater than 100 µM and the TGI (SF-268 CNS) was greater than 100 µM. For the same molecule, the TGI (SF-295 CNS) was greater than 100 µM, the TGI (SF-539 CNS) was greater than 100 µM and the TGI (SK-MEL-2 melanoma) was greater than 100 µM. For the same molecule, the TGI (SK-MEL-28 melanoma) was greater than 100 µM, the TGI (SK-MEL-5 melanoma) was greater than 100 µM and the TGI (SK-OV-3 ovarian) was greater than 100 µM. The TGI (SN12C renal) was greater than 100 µM, the TGI (SNB-19 CNS) was greater than 100 µM and the TGI (SR leukemia) was greater than 100 µM. For the same molecule, the TGI (SW-620 colon) was greater than 100 µM, the TGI (T-47D breast) was greater than 100 µM and the TGI (TK-10 renal) was greater than 100 µM. The TGI (U251 CNS) was greater than 100 µM, the TGI (UACC-257 melanoma) was greater than 100 µM and the TGI (UACC-62 melanoma) was greater than 100 µM. The TGI (UO-31 renal) was greater than 100 µM.

With `N#Cc1c(-c2ccccc2)cc(-c2ccccc2)n(C2OC(CO)C(O)C(O)C2O)c1=O` (stereo not drawn) the TGI (CCRF-CEM leukemia) was greater than 100 µM, the TGI (HL-60(TB) leukemia) was greater than 100 µM and the GI50 (HOP-92 NSCLC) was 88.4 µM and 31.9 µM. The TGI (HOP-92 NSCLC) was greater than 100 µM, the TGI (K-562 leukemia) was greater than 100 µM and the TGI (LOX IMVI melanoma) was greater than 100 µM. It also gave a TGI (LXFL 529 NSCLC) greater than 100 µM, a TGI (MOLT-4 leukemia) greater than 100 µM and a TGI (RPMI-8226 leukemia) greater than 100 µM. For the same molecule, the GI50 (SNB-75 CNS) was 34.4 µM and 14.5 µM, the TGI (SNB-75 CNS) was > 100 µM and 80.9 µM and the TGI (SR leukemia) was greater than 100 µM. For the same molecule, the TGI (UACC-62 melanoma) was greater than 100 µM.
